Activity calls are given as the source filed them.
Key:
[1] = inhibitors of PGC1a acetylation in cells, dose response, cell-based, cherry-picked samples (AID 720514); assay type: functional;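 also: potency may reflect raised or lowered acetylation signal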
[2] = HeLa cell cytotoxicity, dose response, cytotoxicity control for MgcRacGAP inhibitor project (AID 624300); assay type: functional
[3] = target: T1, Rac GTPase-activating protein 1 (Homo sapiens, UniProt Q9H0H5); assay: MgcRacGAP GTPase-activating activity inhibitors, confirmation, biochemical, ADP Hunter fluorescence, primary and confirmatory (AID 624330); assay type: functional
T1 sequence (Q9H0H5 whole entry): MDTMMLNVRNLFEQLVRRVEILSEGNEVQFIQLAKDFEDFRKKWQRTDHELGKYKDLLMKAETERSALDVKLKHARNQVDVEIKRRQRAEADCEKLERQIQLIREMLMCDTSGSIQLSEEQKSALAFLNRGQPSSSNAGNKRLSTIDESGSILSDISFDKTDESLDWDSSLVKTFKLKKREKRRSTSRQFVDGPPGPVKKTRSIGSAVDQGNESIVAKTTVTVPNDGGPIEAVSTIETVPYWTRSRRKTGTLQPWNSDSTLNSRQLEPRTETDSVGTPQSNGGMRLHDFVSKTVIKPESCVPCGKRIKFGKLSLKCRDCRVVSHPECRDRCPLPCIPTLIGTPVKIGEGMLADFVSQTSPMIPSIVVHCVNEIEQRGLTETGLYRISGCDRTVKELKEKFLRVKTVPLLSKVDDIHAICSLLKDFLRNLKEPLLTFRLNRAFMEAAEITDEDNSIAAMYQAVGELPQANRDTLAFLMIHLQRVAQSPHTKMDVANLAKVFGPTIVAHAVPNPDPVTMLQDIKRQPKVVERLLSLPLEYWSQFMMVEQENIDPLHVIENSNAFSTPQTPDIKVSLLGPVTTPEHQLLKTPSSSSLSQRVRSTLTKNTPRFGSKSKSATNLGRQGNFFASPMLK

[4] = LGR2 antagonists, dose response, cell-based, HEK293, CRE-luciferase reporter, cherry pick, set 2 (AID 743343); assay type: functional;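 also: transfected cells were stimulated with diluted bursicon conditioned medium after compound addition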
[5] = target: T2, Adenosylmethionine-8-amino-7-oxononanoate aminotransferase (Mycobacterium tuberculosis, UniProt P9WQ81); assay: Mycobacterium tuberculosis BioA enzyme inhibitor Measured in Biochemical System Using Plate Reader - 2163-02_Inhibitor_Dose_CherryPick_Activity.; assay type: functional, Mycobacterium tuberculosis UT205
T2 sequence (P9WQ81 whole entry): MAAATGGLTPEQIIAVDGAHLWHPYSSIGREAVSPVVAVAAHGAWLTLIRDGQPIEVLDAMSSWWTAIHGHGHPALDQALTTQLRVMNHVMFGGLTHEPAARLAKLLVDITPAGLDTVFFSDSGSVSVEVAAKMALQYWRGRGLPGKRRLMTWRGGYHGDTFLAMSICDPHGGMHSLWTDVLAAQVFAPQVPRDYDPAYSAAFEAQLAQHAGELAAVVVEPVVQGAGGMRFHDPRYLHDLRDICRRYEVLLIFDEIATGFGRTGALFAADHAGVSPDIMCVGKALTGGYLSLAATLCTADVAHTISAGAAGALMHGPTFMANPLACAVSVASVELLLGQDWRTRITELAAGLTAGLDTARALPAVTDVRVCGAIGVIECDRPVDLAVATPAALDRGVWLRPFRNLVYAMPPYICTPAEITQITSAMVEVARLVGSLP

cells [6] = assay type: functional, cell-based
[7] = target: T3, Nuclear receptor subfamily 0 group B member 1 (Homo sapiens, UniProt P51843); assay type: functional, cell-based;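 also: HEK293T cells transfected with SF-1 and DAX-1 plus StAR promoter luciferase reporter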
T3 sequence (P51843 whole entry): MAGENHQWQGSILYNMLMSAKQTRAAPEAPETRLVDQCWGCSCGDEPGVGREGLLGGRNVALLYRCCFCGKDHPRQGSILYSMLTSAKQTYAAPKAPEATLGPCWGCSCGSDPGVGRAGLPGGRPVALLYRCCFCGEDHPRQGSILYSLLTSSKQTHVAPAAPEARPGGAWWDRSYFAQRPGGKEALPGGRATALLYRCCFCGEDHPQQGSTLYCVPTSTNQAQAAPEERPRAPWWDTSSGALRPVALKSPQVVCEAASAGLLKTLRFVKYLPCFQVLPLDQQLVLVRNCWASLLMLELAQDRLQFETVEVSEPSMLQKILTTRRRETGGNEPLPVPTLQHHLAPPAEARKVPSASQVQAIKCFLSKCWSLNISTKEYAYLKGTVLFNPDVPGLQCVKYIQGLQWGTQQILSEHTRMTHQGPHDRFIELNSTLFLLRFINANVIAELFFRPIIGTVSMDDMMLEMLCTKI

Prothrombin = Prothrombin (Homo sapiens, UniProt P00734); assay: Thrombin 1536 HTS Dose Response Confirmation. [Related pubchem assays: 1046 (Thrombin 1536 HTS; hits were confirmed in this assay)]; assay type: functional
[8] = microbe, parasite or virus in culture; assay type: functional; conditions: Mycobacterium tuberculosis
cells [9] = assay type: functional, cell-based; remark: listed apart in the source
[10] = target: T4, Trace amine-associated receptor 1 (Homo sapiens, UniProt Q96RJ0); assay: Fluorescence-based cell-based high throughput dose response assay to identify agonists of the human trace amine associated receptor 1 (TAAR1).; assay type: functional
T4 sequence (Q96RJ0 whole entry): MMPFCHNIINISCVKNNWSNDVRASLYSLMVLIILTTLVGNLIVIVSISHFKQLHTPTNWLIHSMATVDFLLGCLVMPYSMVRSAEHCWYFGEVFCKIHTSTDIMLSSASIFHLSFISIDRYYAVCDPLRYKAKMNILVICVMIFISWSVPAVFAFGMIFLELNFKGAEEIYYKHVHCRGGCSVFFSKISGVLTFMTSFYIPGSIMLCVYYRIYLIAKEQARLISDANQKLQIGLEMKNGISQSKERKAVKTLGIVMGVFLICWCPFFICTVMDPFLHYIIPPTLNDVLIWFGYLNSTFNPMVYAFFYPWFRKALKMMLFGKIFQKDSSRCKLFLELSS

[11] = target: T4, Trace amine-associated receptor 1; assay: Counterscreen for agonists of the human trace amine associated receptor 1 (hTAAR1): Fluorescence-based cell-based high throughput dose response assay to identify hTAAR1 agonist that also desensitize TAAR1 receptor response.; assay type: functional
cells [12] = assay type: functional, cell-based; remark: listed apart in the source
[13] = THP-1 cell cytotoxicity, dose response, cytotoxicity control for Vif-APOBEC3G degradation inhibitor project, THP-1 cells (AID 1117359); assay type: functional; conditions: Human immunodeficiency virus 1, THP-1
[14] = target: Nuclear receptor subfamily 5 group A member 2 (Homo sapiens, UniProt O00482); assay type: functional, cell-based;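 also: HEK293T cells transfected with LRH-1 and a StAR promoter luciferase reporter; potency for inhibitors that lower LRH-1 driven reporter light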
Nuclear receptor subfamily 5 group A member 2, sequence (O00482 whole entry, the tested form may be a part): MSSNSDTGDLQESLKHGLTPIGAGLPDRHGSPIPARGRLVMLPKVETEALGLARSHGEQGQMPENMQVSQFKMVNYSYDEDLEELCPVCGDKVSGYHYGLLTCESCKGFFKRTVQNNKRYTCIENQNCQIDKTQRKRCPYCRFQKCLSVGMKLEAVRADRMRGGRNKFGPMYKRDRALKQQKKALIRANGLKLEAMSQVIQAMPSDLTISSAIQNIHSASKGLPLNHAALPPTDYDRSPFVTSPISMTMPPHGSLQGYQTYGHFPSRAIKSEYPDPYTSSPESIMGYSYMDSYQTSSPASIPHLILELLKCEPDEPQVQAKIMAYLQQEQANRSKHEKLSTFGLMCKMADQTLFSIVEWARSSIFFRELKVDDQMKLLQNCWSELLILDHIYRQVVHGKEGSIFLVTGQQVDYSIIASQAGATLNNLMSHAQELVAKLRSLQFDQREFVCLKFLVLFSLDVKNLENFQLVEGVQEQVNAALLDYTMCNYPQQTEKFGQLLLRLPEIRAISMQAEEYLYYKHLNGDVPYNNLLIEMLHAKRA

Fatty acid synthase [15] = target: T5, Fatty acid synthase (Homo sapiens, UniProt P49327); assay: FAS thioesterase domain inhibitors, dose response, biochemical, endpoint fluorescence intensity, uHTS hits (AID 624327); assay type: functional;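 also: fluorescence from hydrolysis of an O-methyl fluorescein acyl ester substrate by the enzyme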
T5 sequence (P49327 whole entry, the tested form may be a part): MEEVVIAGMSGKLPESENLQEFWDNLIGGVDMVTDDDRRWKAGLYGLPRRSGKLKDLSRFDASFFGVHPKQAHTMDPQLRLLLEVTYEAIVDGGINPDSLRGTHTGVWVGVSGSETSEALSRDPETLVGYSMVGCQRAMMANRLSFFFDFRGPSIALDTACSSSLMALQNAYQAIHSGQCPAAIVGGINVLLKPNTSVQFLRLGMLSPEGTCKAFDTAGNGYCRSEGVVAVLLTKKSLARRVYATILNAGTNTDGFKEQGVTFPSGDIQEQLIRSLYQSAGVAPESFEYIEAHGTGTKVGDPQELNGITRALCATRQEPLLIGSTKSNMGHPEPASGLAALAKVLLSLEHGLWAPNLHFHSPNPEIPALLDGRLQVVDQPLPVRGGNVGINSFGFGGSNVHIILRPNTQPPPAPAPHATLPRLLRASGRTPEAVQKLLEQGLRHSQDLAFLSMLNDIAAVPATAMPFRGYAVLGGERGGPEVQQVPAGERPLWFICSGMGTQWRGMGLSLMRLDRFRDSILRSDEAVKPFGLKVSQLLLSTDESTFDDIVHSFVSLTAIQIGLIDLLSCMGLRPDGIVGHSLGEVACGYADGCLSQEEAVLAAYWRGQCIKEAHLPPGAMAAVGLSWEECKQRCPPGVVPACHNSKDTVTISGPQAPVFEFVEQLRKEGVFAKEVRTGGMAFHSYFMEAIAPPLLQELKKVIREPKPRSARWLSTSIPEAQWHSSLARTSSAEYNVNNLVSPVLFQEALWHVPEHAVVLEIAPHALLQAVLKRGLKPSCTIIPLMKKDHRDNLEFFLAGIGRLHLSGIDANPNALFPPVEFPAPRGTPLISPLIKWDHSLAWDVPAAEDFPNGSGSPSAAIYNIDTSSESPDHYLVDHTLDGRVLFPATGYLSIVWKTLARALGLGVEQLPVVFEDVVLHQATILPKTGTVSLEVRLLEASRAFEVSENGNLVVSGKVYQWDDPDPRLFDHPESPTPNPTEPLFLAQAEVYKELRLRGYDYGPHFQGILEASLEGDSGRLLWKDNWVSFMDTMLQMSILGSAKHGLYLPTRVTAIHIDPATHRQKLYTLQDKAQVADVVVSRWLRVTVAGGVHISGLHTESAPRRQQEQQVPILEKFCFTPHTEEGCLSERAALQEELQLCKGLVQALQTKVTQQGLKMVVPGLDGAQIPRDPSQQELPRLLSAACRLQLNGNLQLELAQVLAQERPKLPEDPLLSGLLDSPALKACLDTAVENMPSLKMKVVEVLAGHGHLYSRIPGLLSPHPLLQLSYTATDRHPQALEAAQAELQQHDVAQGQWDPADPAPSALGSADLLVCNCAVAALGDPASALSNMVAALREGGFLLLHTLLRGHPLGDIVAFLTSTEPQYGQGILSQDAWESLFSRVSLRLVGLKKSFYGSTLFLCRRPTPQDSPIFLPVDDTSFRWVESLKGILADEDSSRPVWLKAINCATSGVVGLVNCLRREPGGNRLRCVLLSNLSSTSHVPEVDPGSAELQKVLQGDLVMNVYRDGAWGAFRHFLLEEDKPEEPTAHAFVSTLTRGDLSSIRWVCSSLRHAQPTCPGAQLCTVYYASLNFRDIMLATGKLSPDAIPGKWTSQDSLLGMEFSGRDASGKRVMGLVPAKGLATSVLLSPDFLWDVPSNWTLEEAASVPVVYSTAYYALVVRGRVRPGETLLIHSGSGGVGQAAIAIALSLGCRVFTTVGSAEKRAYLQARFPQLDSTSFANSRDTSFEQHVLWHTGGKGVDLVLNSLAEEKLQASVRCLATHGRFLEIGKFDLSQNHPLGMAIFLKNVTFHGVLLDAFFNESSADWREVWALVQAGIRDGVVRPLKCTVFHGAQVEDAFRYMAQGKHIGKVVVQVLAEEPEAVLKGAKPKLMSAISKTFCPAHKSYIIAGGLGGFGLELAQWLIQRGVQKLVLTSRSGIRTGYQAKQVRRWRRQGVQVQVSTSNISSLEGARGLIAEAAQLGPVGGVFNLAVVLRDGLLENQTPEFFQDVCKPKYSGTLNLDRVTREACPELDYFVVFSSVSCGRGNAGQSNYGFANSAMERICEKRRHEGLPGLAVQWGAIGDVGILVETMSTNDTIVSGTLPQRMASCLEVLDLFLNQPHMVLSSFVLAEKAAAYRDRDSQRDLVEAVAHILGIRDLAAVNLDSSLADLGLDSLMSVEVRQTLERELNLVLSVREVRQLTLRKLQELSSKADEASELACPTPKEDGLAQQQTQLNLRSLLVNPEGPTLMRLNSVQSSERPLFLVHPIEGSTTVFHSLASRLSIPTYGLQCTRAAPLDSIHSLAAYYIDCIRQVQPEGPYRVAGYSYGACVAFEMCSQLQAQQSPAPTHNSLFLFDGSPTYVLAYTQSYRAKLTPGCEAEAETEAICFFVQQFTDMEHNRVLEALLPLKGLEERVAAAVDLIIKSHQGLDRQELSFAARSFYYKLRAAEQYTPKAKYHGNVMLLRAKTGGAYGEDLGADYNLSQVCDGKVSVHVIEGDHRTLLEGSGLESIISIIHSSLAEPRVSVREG

Steroidogenic factor 1 = Steroidogenic factor 1 (Homo sapiens, UniProt Q13285); assay: Counterscreen for inverse agonists of the liver receptor homolog-1 (LRH-1; NR5A2): Luminescence-based cell-based high throughput dose response assay to identify inverse agonists of the Steroidogenic Factor 1 Nuclear Receptor (SF1; NR5A1).; assay type: functional
Steroidogenic factor 1, sequence (Q13285 whole entry): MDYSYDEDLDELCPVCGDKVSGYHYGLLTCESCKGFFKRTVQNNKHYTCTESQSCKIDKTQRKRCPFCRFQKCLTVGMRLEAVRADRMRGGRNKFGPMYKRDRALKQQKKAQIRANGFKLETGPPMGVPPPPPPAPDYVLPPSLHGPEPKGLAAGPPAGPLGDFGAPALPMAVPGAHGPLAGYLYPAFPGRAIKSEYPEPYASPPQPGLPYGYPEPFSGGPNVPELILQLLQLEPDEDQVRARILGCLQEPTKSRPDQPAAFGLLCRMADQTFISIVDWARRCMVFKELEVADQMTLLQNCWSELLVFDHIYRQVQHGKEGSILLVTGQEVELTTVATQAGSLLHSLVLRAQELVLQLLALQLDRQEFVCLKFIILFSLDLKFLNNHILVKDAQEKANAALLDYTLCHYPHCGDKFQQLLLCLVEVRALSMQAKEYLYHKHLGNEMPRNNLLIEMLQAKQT

[16] = StAR promoter reporter inhibition counter-screen, dose response, counter-screen for LRH-1 inverse agonist project, cell-based, luminescence, luciferase reporter (AID 651969); assay type: functional
Fatty acid synthase [17] = target: T5, Fatty acid synthase; assay: FAS thioesterase domain inhibitors, dose response, biochemical, kinetic fluorescence intensity (AID 624326); assay type: functional;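 also: rate of fluorescence rise from hydrolysis of a fluorogenic O-methyl fluorescein ester substrate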

COc1cc(CNCCN2CCOCC2)ccc1OCc1ccc(Cl)cc1Cl
AC50 [1]: 17.3 µM (active)

COc1cc(/C=C2\C(=O)N(C)C(=S)N2C)ccc1O
CC50 [2]: 100 µM (active)
IC50 [3]: 31.9 µM (active)

CCc1ccc2ncc(S(=O)(=O)c3ccc(C)c(C)c3)c(N3CCCC3)c2c1
AC50 [4]: 48.2 µM (active)

O=C(C1CCCN(S(=O)(=O)c2cccnc2)C1)N1CCn2c1nc1ccccc12 (stereo not drawn)
AC50 [5]: 14 µM (active)

CN1CCN(C(=O)c2cc(COc3ccccc3)on2)[C@@H](c2ccccc2)C1
IC50 (cells [6]): > 67.6 µM (inactive)
IC50 [7]: > 67.6 µM (inactive)

COc1ccc(C2c3c(-c4cc(Cl)c(C)cc4O)n[nH]c3C(=O)N2Cc2cccnc2)cc1OC (stereo not drawn)
IC50 (Prothrombin): > 50 µM (not active)
AC50 [5]: 0.102 µM (active)

CCCCOP(=O)(OCCCC)C(Nc1ccc(C(=O)OCC)cc1)c1ccncc1 (stereo not drawn)
CC50 [8]: > 40 µM (active)

CNCC(C)c1ccccc1 (stereo not drawn)
IC50 (cells [9]): > 29.9 µM (inactive)
EC50 [10]: 0.598 µM (active)
IC50 [11]: 3.54 µM (active)
EC50 (cells [12]): > 29.9 µM (inactive)

CCCC(C)NC(=O)CSCc1ccc(OC)cc1 (stereo not drawn)
CC50 [13]: > 40 µM (active)

O=C(Nc1ccc(Cc2ccncc2)cc1)c1cccc([N+](=O)[O-])c1
IC50 [14]: 35.9 µM (inactive)
IC50 (Fatty acid synthase [15]): 7.76 µM (active)
IC50 (Steroidogenic factor 1): 1.33 µM (active)
IC50 [16]: 35.9 µM (inactive)
IC50 (Fatty acid synthase [17]): 10.5 µM (active)

COc1cccc(-n2c(S)nnc2-c2cccc(S(=O)(=O)N(C)C)c2)c1
AC50 [1]: 39 µM (active)

Clc1ccc2c(c1)C(c1ccccc1Cl)=NCc1nnc(N3CCN(CCOc4ccccc4)CC3)n1-2
CC50 [8]: > 40 µM (active)

COc1cccc(C(=O)/C=C2\Sc3ccccc3N2C)c1
CC50 [8]: > 40 µM (active)
